Assay results taken from patent publication US20050171211A1, “Gingerol analogues and use thereof” (priority 2002, published 2005).
Where two headings read alike, the source gives them in different places.

Key:
[1] = Test about suppression of lipid peroxide generation in linoleic acid
Protocol: Using the compound of the formula (11) as obtained in Example 1 and the compound of the formula (12) as obtained in Example 2, a test about the suppression of lipid peroxide generation in linoleic acid was done. Along with the compounds, dl-α-tocopherol (manufactured by Tokyo Kasei Kogyo Co., Ltd.) was tested similarly, to obtain control data.
The test procedures are as follows. As a test result, the ratio of residual linoleic acid by the following procedure (3) is described in Table 1.
(1) After ethanol (2.0 g ) was added to linoleic acid (0.2 g; manufactured by Tokyo Kasei Kogyo Co., Ltd.), a test compound (0.01 g) and a surface active agent Nissan OT-221 (0.4 g; manufactured by NOF Corporation) placed in a 50-ml screw vial, for dissolution, distilled water (17.39 g) was added to the resulting solution for agitation, and was then sealed and left to stand alone in a thermostat at 40° C. Such sample was prepared in a duplex manner.
A blank test with no test compound added was similarly done.
(2) The amount of remaining linoleic acid one week, 2 weeks, 3 weeks and 4 weeks after the start of the test was assayed by HPLC.
The HPLC analytical conditions were as follows. Wavelength for detection: 210 nm. Mobile phase: a mixture solution of a disodium hydrogen phosphate-phosphate buffer adjusted to pH 2.5 and methanol (10:90). Flow: 1 ml/min. Column: ODS-8OTs (4.6 Φmm×150 mm). Column temperature at 40° C.
(3) Each sample was assayed by HPLC two times. The ratio of remaining linoleic acid was calculated on the basis of the mean of four assay values.

[2] = Test about scavenging DPPH radical; settings: final concentration 10 μg/mL; for Ratio of scavenging DPPH radical: 20 minutes, darkness, ambient temperature, absorbance at 517 nm
Protocol: Concerning radical-scavenging activity, a stable radical DPPH (1,1-diphenyl-2-picrylhydrazyl) was used for assaying the radical-scavenging activities of test compounds [the compound of the formula (11) and the compound of the formula (12) and a control sample dl-α-tocopherol (manufactured by Tokyo Kasei Kogyo Co., Ltd.)]. The assay method is as follows. Tris below is an acronym of tris(hydroxymethyl)aminomethane and M represents the concentration unit Mol/L.
1 ml of 200 μM DPPH solution in ethanol was added to 800 μl of 100 mM Tris-HCl buffer, pH 7.4 and 200 μl of a test compound solution in ethanol (to a final concentration of 10 μg/mL), for sufficient agitation. After the resulting mixture was left to stand alone in darkness at ambient temperature for 20 minutes, the absorbance at 517 nm was measured (absorbance of the test solutions).
Meanwhile, 800 μl of 100 mM Tris-HCl buffer, pH 7.4, 200 μl of ethanol and 1 ml of 200 μM DPPH solution in ethanol were used for the same procedures as described above to measure the absorbance to obtain the absorbance of the blank.
The individual test compounds and the blank were repeatedly treated by the same procedures three times, and the mean of the resulting absorbance values was inserted in the following formula, to calculate the ratio of scavenging DPPH radical. Ratio of scavenging DPPH radical (%)={1-(absorbance of sample solution/absorbance of blank solution)}×100

mushroom tyrosinase = test: Test about the inhibition of tyrosinase activity using L-dopa as substrate; format: biochemical; settings: 0.27 or 0.54 μmol in 3 ml enzyme reaction solution, 25° C.
Protocol: Using the compound of the formula (11) obtained in Example 1, a test about the inhibition of tyrosinase activity using L-dopa as substrate was done. The same test was done about arbutin (manufactured by Tokyo Kasei Kogyo Co., Ltd.), to get control data. The test procedures are as follows. […]
(2) 0.10 ml of an enzyme solution prepared by dissolving 3.0 mg (2400 units; manufactured by Sigma Corporation) of mushroom tyrosinase in 7.0 ml of distilled water was added to the solution prepared in (1), for agitation for 15 seconds. The resulting solution was retained at 25° C., to measure the absorbance at 475 nm one minute-45 seconds later and 2 minute- 45 seconds later.
(3) The test procedures above in (1) and (2) were conducted three times for the individual test compounds and blank test (only dimethylsulfoxide), and the resulting mean was inserted in the following calculation formula to determine the ratio (%) of the inhibition of tyrosinase activity. Ratio of inhibition of tyrosinase activity (%)=[(T^1-T^2)/T^1]×100 T^1=difference in absorbance of blank solution between 2 minute-45 seconds later and one minute-45 seconds later T^2=difference in absorbance of solution with addition of test compound between 2 minute-45 seconds later and one minute-45 seconds later

| Structure (SMILES) | ratio of remaining linoleic acid ([1]; 2 weeks later, 40° C., 0.01 g test compound, 0.2 g linoleic acid, HPLC) [%] | ratio of remaining linoleic acid ([1]; 3 weeks later, 40° C., 0.01 g test compound, 0.2 g linoleic acid, HPLC) [%] | ratio of remaining linoleic acid ([1]; 4 weeks later, 40° C., 0.01 g test compound, 0.2 g linoleic acid, HPLC) [%] | ratio of remaining linoleic acid ([1]; one week later, 40° C., 0.01 g test compound, 0.2 g linoleic acid, HPLC) [%] | Ratio of scavenging DPPH radical [2] [%] | inhibition of tyrosinase activity compared with arbutin (FIG. 1) (mushroom tyrosinase) | ratio of remaining linoleic acid [1] [%] | ability of scavenging radical compared with dl-α-tocopherol [2] |
| --- | --- | --- | --- | --- | --- | --- | --- | --- |
| Cc1c(C)c2c(c(C)c1O)CCC(C)(CCCC(C)CCCC(C)CCCC(C)C)O2 (racemic) [Tocopherol, dl-α-tocopherol] | 73.2 | 62.6 | 57.3 | 83.6 | 26.7 | – | – | – |
| CCCCCC(CC(=O)CCc1ccc(O)c(OC)c1)OC (stereo not drawn) [Compound of formula (11)] | – | – | – | – | 35.1 | superior to that of arbutin | 90.5 | higher levels than that of dl-α-tocopherol |
| CCCCCC(CC(O)CCc1ccc(O)c(OC)c1)OC (stereo not drawn) [Compound of formula (12)] | – | – | – | – | 40.0 | – | 89.2 | higher levels than that of dl-α-tocopherol |
